Measured values as given in patent publication US11007274B2, “Compounds for medicinal applications” (Ausvir Therapeutics Pty LTD, priority 2015, dated 2021).
≈ marks a conversion by molar mass, not a printed value. Where two headings read alike, the source gives them in different places.

Assays:
[1] = tested on: Perth/16/2009; experiment: microbe, parasite or virus in culture; assay type: cell-based
[2] = tested on: CA/07/2009; experiment: microbe, parasite or virus in culture; assay type: cell-based
[3] = tested on: Duck/MN/1525/81; assay type: cell-based; conditions: Table 7
[4] = tested on: Florida/4/2006; experiment: microbe, parasite or virus in culture; assay type: cell-based
[5] = line Neutral Red (Cytopathic effect/Toxicity)
[6] = tested on: Influenza A virus H7N9, A/Anhui/1/2003; assay type: cell-based
[7] = tested on: Influenza A virus H5N1, Hong Kong/213/2003; experiment: microbe, parasite or virus in culture; assay type: cell-based
[8] = tested on: Influenza A virus H5N1, Hong Kong/213/2003; experiment: microbe, parasite or virus in culture; assay type: cell-based; remark: listed apart in the source
[9] = tested on: Influenza A virus H7N9, A/Anhui/1/2003; assay type: cell-based; remark: listed apart in the source

SMILES	EC50 ([1]; Table 7)	EC50 Perth/16/2009 ([1]; Table 7)	EC50 ([2]; Table 7)	EC50 CA/07/2009 ([2]; Table 7, MDCK cell line)	EC50 [3]	EC50 ([4]; Table 7)	EC50 Florida/4/2006 ([4]; Table 7)	EC50 [1]	EC50 Perth/16/2009 [1]	EC50 [2]	EC50 CA/07/2009 [2]	EC50 [4]	EC50 Florida/4/2006 [4]	CC50 ([5]; Table 9)	CC50 ([5]; Table 10)	EC90 [6]	EC50 [7]	EC90 [8]	EC50 [9]	EC50 ([4]; Table 7, cells of the nM column printed in μM)
CC(=O)N[C@H]1[C@H]([C@H](OC(=O)NCCCCCCNC(=O)c2cc(C(=O)O)c(C(=O)NCCCCCCNC(=O)O[C@@H]([C@@H]3OC(C(=O)O)=C[C@H](N=C(N)N)[C@H]3NC(C)=O)[C@H](O)CO)cc2C(=O)O)[C@H](O)CO)OC(C(=O)O)=C[C@@H]1N=C(N)N [MD015, PK1 PYR(Z)2]	6.7 nM	7.8 ng/mL (≈ 6.68 nM)	6 nM	7 ng/mL (≈ 6 nM)	0.34 nM	2.1 nM	2.5 ng/mL (≈ 2.14 nM)													
CC(=O)N[C@H]1[C@H]([C@H](OC(=O)NCCCCCCNC(=O)c2cc(C(=O)NCCCCCCNC(=O)O[C@@H]([C@@H]3OC(C(=O)O)=C[C@H](N=C(N)N)[C@H]3NC(C)=O)[C@H](O)CO)c(C(=O)O)cc2C(=O)O)[C@H](O)CO)OC(C(=O)O)=C[C@@H]1N=C(N)N [MD016, PK2 PYR(Z)2]					0.51 nM			2.8 nM	3.3 ng/mL (≈ 2.83 nM)	7.7 nM	9 ng/mL (≈ 7.71 nM)	7 nM	8.2 ng/mL (≈ 7.03 nM)							
CC(=O)N[C@H]1[C@H]([C@H](OC(=O)NCCCCCCCCNC(=O)[C@@H]2C[C@H](C(=O)NCCCCCCCCNC(=O)O[C@@H]([C@@H]3OC(C(=O)O)=C[C@H](N=C(N)N)[C@H]3NC(C)=O)[C@H](O)CO)C[C@H](C(=O)N[C@@H](CC(=O)NCS(=O)(=O)O)C(=O)NCS(=O)(=O)O)C2)[C@H](O)CO)OC(C(=O)O)=C[C@@H]1N=C(N)N [MD154, CHTCA(Z0)2-L-Asp(NHCH2SO3H)2]	< 0.087 nM	<0.13 ng/mL	6.06 nM	9 ng/mL (≈ 6.05 nM)	< 0.087 nM	< 0.087 nM	<0.13 ng/mL							>1000 ng/mL	>1000 ng/mL	10 ng/mL (≈ 6.73 nM)	<0.32 ng/mL	<0.32 ng/mL	<0.32 ng/mL	
CC(=O)N[C@H]1[C@H]([C@H](OC(=O)NCCCCNC(=O)[C@@H]2C[C@H](C(=O)NCCCCNC(=O)O[C@@H]([C@@H]3OC(C(=O)O)=C[C@H](N=C(N)N)[C@H]3NC(C)=O)[C@H](O)CO)C[C@H](C(=O)N[C@@H](CC(=O)O)C(=O)O)C2)[C@H](O)CO)OC(C(=O)O)=C[C@@H]1N=C(N)N [MD206, CHTCA(Zb)2-L-Asp]	6.1 nM	7.3 ng/mL (≈ 6.14 nM)	1.68 nM	2 ng/mL (≈ 1.68 nM)	0.59 nM		>10000 ng/mL													> 8400 nM
CC(=O)N[C@H]1[C@H]([C@H](OC(=O)NCCCCNC(=O)c2cc(C(=O)NCCCCNC(=O)O[C@@H]([C@@H]3OC(C(=O)O)=C[C@H](N=C(N)N)[C@H]3NC(C)=O)[C@H](O)CO)c(C(=O)N[C@H](CC(=O)NCS(=O)(=O)O)C(=O)NCS(=O)(=O)O)cc2C(=O)N[C@H](CC(=O)NCS(=O)(=O)O)C(=O)NCS(=O)(=O)O)[C@H](O)CO)OC(C(=O)O)=C[C@@H]1N=C(N)N [MD219, PK2 PYR(Zb)2[(D-Asp)(NHCH2SO3H)2]2]					0.29 nM			> 5800 nM	>10000 ng/mL	2.92 nM	5 ng/mL (≈ 2.92 nM)	0.99 nM	1.7 ng/mL (≈ 0.992 nM)							
